Laboratory results: ChEMBL document CHEMBL3091298, “Bis-phosphonium salts of pyridoxine: the relationship between structure and antibacterial activity” (Bioorg Med Chem, 2013)
≈ marks a conversion by molar mass, not a printed value.

Legend:
Staphylococcus aureus = assay: Antibacterial activity against Staphylococcus aureus after 18 to 24 hrs; format: functional
[1] = tested on: Staphylococcus epidermidis; assay: Antibacterial activity against Staphylococcus epidermidis after 18 to 24 hrs; format: functional
Klebsiella pneumoniae = assay: Antibacterial activity against Klebsiella pneumoniae after 18 to 24 hrs; format: functional
Proteus sp. = assay: Antibacterial activity against Proteus sp. after 18 to 24 hrs; format: functional; details: Proteus sp. (in: enterobacteria)
[2] = (§1) Cytotoxicity against HEK293 cells after 72 hrs by MTT assay; format: cell-based; details: human, HEK293 cells
[3] = Genotoxicity in uvrA-deficient Escherichia coli assessed as survival at 10 ug/ml after 6 hrs by DNA-repair test; format: toxicity, organism-based; details: read-out: Survival
[4] = Genotoxicity in recA-deficient Escherichia coli assessed as survival at 10 ug/ml after 6 hrs by DNA-repair test; format: toxicity, organism-based; details: read-out: Survival
Salmonella typhimurium [5] = assay: Mutagenic activity in Salmonella typhimurium TA100 assessed as increase in number of revertants at 1 ug/ml by Ames test relative to solvent control; format: toxicity, organism-based; details: salmonella enterica subsp. enterica serovar typhimurium
Salmonella typhimurium [6] = assay: Mutagenic activity in Salmonella typhimurium TA100 assessed as increase in number of revertants at 10 ug/ml by Ames test relative to solvent control; format: toxicity, organism-based; details: salmonella enterica subsp. enterica serovar typhimurium
[7] = Genotoxicity in polA-deficient Escherichia coli assessed as survival at 1 ug/ml after 6 hrs by DNA-repair test; format: toxicity, organism-based; details: read-out: Survival
[8] = Genotoxicity in polA-deficient Escherichia coli assessed as survival at 10 ug/ml after 6 hrs by DNA-repair test; format: toxicity, organism-based; details: read-out: Survival
Salmonella typhimurium [9] = assay: Mutagenic activity in Salmonella typhimurium TA100 assessed as increase in number of revertants at 100 ug/ml by Ames test relative to solvent control; format: toxicity, organism-based; details: salmonella enterica subsp. enterica serovar typhimurium
[10] = Genotoxicity in polA-deficient Escherichia coli assessed as survival at 100 ug/ml after 6 hrs by DNA-repair test; format: toxicity, organism-based; details: read-out: Survival
[11] = Genotoxicity in recA-deficient Escherichia coli assessed as survival at 1 ug/ml after 6 hrs by DNA-repair test; format: toxicity, organism-based; details: read-out: Survival
[12] = Genotoxicity in uvrA-deficient Escherichia coli assessed as survival at 100 ug/ml after 6 hrs by DNA-repair test; format: toxicity, organism-based; details: read-out: Survival
[13] = Genotoxicity in recA-deficient Escherichia coli assessed as survival at 100 ug/ml after 6 hrs by DNA-repair test; format: toxicity, organism-based; details: read-out: Survival
[14] = Genotoxicity in uvrA-deficient Escherichia coli assessed as survival at 1 ug/ml after 6 hrs by DNA-repair test; format: toxicity, organism-based; details: read-out: Survival
HEK293 = assay: as §1; format: cell-based; details: human, hek293, 72 h

Row | MIC (Staphylococcus aureus) | MIC [1] | MIC (Klebsiella pneumoniae) | MIC (Proteus sp.) | SMILES | CC50 at 72 h [2] | other results
1 | 1000 µg/mL | > 1000 µg/mL | > 1000 µg/mL | > 1000 µg/mL | Cc1nc(C[P+](c2cccs2)(c2cccs2)c2cccs2)c(C[P+](c2cccs2)(c2cccs2)c2cccs2)c(CO)c1O.Cl.[Cl-].[Cl-] | – | –
2 | 5 µg/mL | 10 µg/mL | 1000 µg/mL | > 1000 µg/mL | CCCCC1OCc2c(C[P+](c3ccccc3)(c3ccccc3)c3ccccc3)c(C[P+](c3ccccc3)(c3ccccc3)c3ccccc3)nc(C)c2O1.[Cl-].[Cl-] (centres undefined) | 2 µg/mL | –
3 | 500 µg/mL | 500 µg/mL | > 1000 µg/mL | > 1000 µg/mL | Cc1nc2c(c(CO)c1O)C[P+](c1ccccc1)(c1ccccc1)CC[P+](c1ccccc1)(c1ccccc1)C2.Cl.[Cl-].[Cl-] | – | –
4 | 1 µg/mL | 1 µg/mL | > 1000 µg/mL | > 1000 µg/mL | Cc1ccc([P+](Cc2nc(C)c3c(c2C[P+](c2ccc(C)cc2)(c2ccc(C)cc2)c2ccc(C)cc2)COC(C)(C)O3)(c2ccc(C)cc2)c2ccc(C)cc2)cc1.[Cl-].[Cl-] | 29.5 µg/mL | –
5 | 5 µg/mL | 5 µg/mL | 1000 µg/mL | > 1000 µg/mL | CCCCCC1OCc2c(C[P+](c3ccccc3)(c3ccccc3)c3ccccc3)c(C[P+](c3ccccc3)(c3ccccc3)c3ccccc3)nc(C)c2O1.[Cl-].[Cl-] (centres undefined) | 1 µg/mL | –
6 | 10 µg/mL | 5 µg/mL | > 1000 µg/mL | > 1000 µg/mL | Cc1nc(C[P+](c2ccccc2)(c2ccccc2)c2ccccc2)c(C[P+](c2ccccc2)(c2ccccc2)c2ccccc2)c2c1OC(C(C)C)OC2.[Cl-].[Cl-] (centres undefined) | 2.57 µg/mL | –
7 | 10 µg/mL | 10 µg/mL | > 1000 µg/mL | > 1000 µg/mL | CCC1OCc2c(C[P+](c3ccccc3)(c3ccccc3)c3ccccc3)c(C[P+](c3ccccc3)(c3ccccc3)c3ccccc3)nc(C)c2O1.[Cl-].[Cl-] (centres undefined) | 4 µg/mL | –
8 | 100 µg/mL | 100 µg/mL | > 1000 µg/mL | > 1000 µg/mL | Cc1nc(C[P+](c2cccs2)(c2cccs2)c2cccs2)c(C[P+](c2cccs2)(c2cccs2)c2cccs2)c2c1OC(C)(C)OC2.[Cl-].[Cl-] | – | –
9 | 1.25 µg/mL | 1.25 µg/mL | 1000 µg/mL | > 1000 µg/mL | Cc1cccc([P+](Cc2nc(C)c3c(c2C[P+](c2cccc(C)c2)(c2cccc(C)c2)c2cccc(C)c2)COC(C)(C)O3)(c2cccc(C)c2)c2cccc(C)c2)c1.[Cl-].[Cl-] | 13 µg/mL | –
10 | 10 µg/mL | 10 µg/mL | 1000 µg/mL | > 1000 µg/mL | CCCCCCCC1OCc2c(C[P+](c3ccccc3)(c3ccccc3)c3ccccc3)c(C[P+](c3ccccc3)(c3ccccc3)c3ccccc3)nc(C)c2O1.[Cl-].[Cl-] (centres undefined) | 0.5 µg/mL | –
11 | 10 µg/mL | 10 µg/mL | > 1000 µg/mL | > 1000 µg/mL | Cc1nc(C[P+](c2ccccc2)(c2ccccc2)c2ccccc2)c(CO)c2c1OC(C)(C)OC2.[Br-] | – | –
12 | 125 µg/mL | 100 µg/mL | > 1000 µg/mL | > 1000 µg/mL | Cc1nc2c(c3c1OC(C)(C)OC3)C[P+](c1ccccc1)(c1ccccc1)CC[P+](c1ccccc1)(c1ccccc1)C2.[Cl-].[Cl-] | – | –
13 | 12.5 µg/mL | 12.5 µg/mL | > 1000 µg/mL | > 1000 µg/mL | Cc1cccc([P+](Cc2nc(C)c(O)c(CO)c2C[P+](c2cccc(C)c2)(c2cccc(C)c2)c2cccc(C)c2)(c2cccc(C)c2)c2cccc(C)c2)c1.Cl.[Cl-].[Cl-] | – | –
14 | 12.5 µg/mL | 10 µg/mL | > 1000 µg/mL | > 1000 µg/mL | Cc1nc(C[P+](c2ccccc2)(c2ccccc2)c2ccccc2)c(C[P+](c2ccccc2)(c2ccccc2)c2ccccc2)c2c1OC(C)OC2.[Cl-].[Cl-] (centres undefined) | 33.9 µg/mL | –
15 | 50 µg/mL | 50 µg/mL | > 1000 µg/mL | > 1000 µg/mL | Cc1nc(C[P+](c2ccc(F)cc2)(c2ccc(F)cc2)c2ccc(F)cc2)c(C[P+](c2ccc(F)cc2)(c2ccc(F)cc2)c2ccc(F)cc2)c2c1OC(C)(C)OC2.[Cl-].[Cl-] | – | –

Further lines, the molecule ahead of its results:

Row | SMILES | MIC (Staphylococcus aureus) | MIC [1] | MIC (Klebsiella pneumoniae) | MIC (Proteus sp.) | CC50 at 72 h [2] | other results
16 | CCCC[P+](CCCC)(CCCC)Cc1nc(C)c(O)c(CO)c1C[P+](CCCC)(CCCC)CCCC.Cl.[Cl-].[Cl-] | 1000 µg/mL | 1000 µg/mL | > 1000 µg/mL | > 1000 µg/mL | – | –
17 | Cc1ccc([P+](Cc2nc(C)c(O)c(CO)c2C[P+](c2ccc(C)cc2)(c2ccc(C)cc2)c2ccc(C)cc2)(c2ccc(C)cc2)c2ccc(C)cc2)cc1.Cl.[Cl-].[Cl-] | > 1000 µg/mL | > 1000 µg/mL | > 1000 µg/mL | > 1000 µg/mL | – | –
18 | CN[C@H](CC(C)C)C(=O)N[C@H]1C(=O)N[C@@H](CC(N)=O)C(=O)N[C@H]2C(=O)N[C@H]3C(=O)N[C@H](C(=O)N[C@H](C(=O)O)c4cc(O)cc(O)c4-c4cc3ccc4O)[C@H](O)c3ccc(c(Cl)c3)Oc3cc2cc(c3O[C@@H]2O[C@H](CO)[C@@H](O)[C@H](O)[C@H]2O[C@H]2C[C@](C)(N)[C@H](O)[C@H](C)O2)Oc2ccc(cc2Cl)[C@H]1O [VANCOMYCIN] | 2.5 µg/mL (≈ 1.73 µM) | 2.5 µg/mL (≈ 1.73 µM) | > 1000 µg/mL | > 1000 µg/mL | > 1000 µg/mL | –
19 | Cc1nc(C[P+](c2ccccc2)(c2ccccc2)c2ccccc2)c(C[P+](c2ccccc2)(c2ccccc2)c2ccccc2)c2c1OC(C)(C)OC2.O=[N+]([O-])[O-].O=[N+]([O-])[O-] | 100 µg/mL | 100 µg/mL | 1000 µg/mL | > 1000 µg/mL | – | –
20 | Cc1nc(C[P+](c2ccc(F)cc2)(c2ccc(F)cc2)c2ccc(F)cc2)c(C[P+](c2ccc(F)cc2)(c2ccc(F)cc2)c2ccc(F)cc2)c(CO)c1O.Cl.[Cl-].[Cl-] | 1000 µg/mL | 1000 µg/mL | > 1000 µg/mL | > 1000 µg/mL | – | –
21 | CCCC1OCc2c(C[P+](c3ccccc3)(c3ccccc3)c3ccccc3)c(C[P+](c3ccccc3)(c3ccccc3)c3ccccc3)nc(C)c2O1.[Cl-].[Cl-] (centres undefined) | 1 µg/mL | 1 µg/mL | > 1000 µg/mL | > 1000 µg/mL | 3 µg/mL | viability at 6 h, 10 ug/ml [3]: 116%; viability at 6 h, 10 ug/ml [4]: 83.1%; Ratio (Salmonella typhimurium [5]): 0.91; Ratio (Salmonella typhimurium [6]): 1.12; viability at 6 h, 1 ug/ml [7]: 110%; viability at 6 h, 10 ug/ml [8]: 108%; Ratio (Salmonella typhimurium [9]): 1.08; viability at 6 h, 100 ug/ml [10]: 57.7%; viability at 6 h, 1 ug/ml [11]: 87.8%; viability at 6 h, 100 ug/ml [12]: 64.4%; viability at 6 h, 100 ug/ml [13]: 80.4%; viability at 6 h, 1 ug/ml [14]: 113%
22 | Cc1nc(C[P+](c2ccccc2)(c2ccccc2)c2ccccc2)c(C[P+](c2ccccc2)(c2ccccc2)c2ccccc2)c2c1OC(C)(C)OC2.[I-].[I-] | 10 µg/mL | 10 µg/mL | > 1000 µg/mL | > 1000 µg/mL | – | –
23 | Cc1nc(C[P+](c2ccccc2)(c2ccccc2)c2ccccc2)c(C[P+](c2ccccc2)(c2ccccc2)c2ccccc2)c2c1OC(C)(C)OC2.[Br-].[Br-] | 1.25 µg/mL | 2.5 µg/mL | > 1000 µg/mL | > 1000 µg/mL | – | CC50 (HEK293): 27.5 µg/mL
24 | CCCC[P+](CCCC)(CCCC)Cc1nc(C)c2c(c1C[P+](CCCC)(CCCC)CCCC)COC(C)(C)O2.[Cl-].[Cl-] | 1.25 µg/mL | 1.25 µg/mL | > 1000 µg/mL | > 1000 µg/mL | 200 µg/mL | viability at 6 h, 10 ug/ml [3]: 115%; viability at 6 h, 10 ug/ml [4]: 82.9%; Ratio (Salmonella typhimurium [5]): 0.82; Ratio (Salmonella typhimurium [6]): 1.21; viability at 6 h, 1 ug/ml [7]: 112%; viability at 6 h, 10 ug/ml [8]: 118%; Ratio (Salmonella typhimurium [9]): 1.04; viability at 6 h, 100 ug/ml [10]: 57.8%; viability at 6 h, 1 ug/ml [11]: 88.6%; viability at 6 h, 100 ug/ml [12]: 66.1%; viability at 6 h, 100 ug/ml [13]: 77.8%; viability at 6 h, 1 ug/ml [14]: 109%
25 | CCCC1OCc2c(C[P+](c3ccc(C)cc3)(c3ccc(C)cc3)c3ccc(C)cc3)c(C[P+](c3ccc(C)cc3)(c3ccc(C)cc3)c3ccc(C)cc3)nc(C)c2O1.[Cl-].[Cl-] (centres undefined) | 2.5 µg/mL | 2.5 µg/mL | 1000 µg/mL | 1000 µg/mL | 1 µg/mL | –
26 | Cc1nc(C[P+](c2ccccc2)(c2ccccc2)c2ccccc2)c(C[P+](c2ccccc2)(c2ccccc2)c2ccccc2)c2c1OC(C)(C)OC2.[Cl-].[Cl-] | 5 µg/mL | 5 µg/mL | > 1000 µg/mL | > 1000 µg/mL | – | CC50 (HEK293): 72 µg/mL; viability at 6 h, 10 ug/ml [3]: 114%; viability at 6 h, 10 ug/ml [4]: 79.3%; Ratio (Salmonella typhimurium [5]): 0.76; Ratio (Salmonella typhimurium [6]): 0.88; viability at 6 h, 1 ug/ml [7]: 114%; viability at 6 h, 10 ug/ml [8]: 112%; Ratio (Salmonella typhimurium [9]): 0.85; viability at 6 h, 100 ug/ml [10]: 59.4%; viability at 6 h, 1 ug/ml [11]: 88.8%; viability at 6 h, 100 ug/ml [12]: 68.9%; viability at 6 h, 100 ug/ml [13]: 70.1%; viability at 6 h, 1 ug/ml [14]: 103%
